Test results taken from ChEMBL document CHEMBL5137070, “N-2-(Phenylamino) Benzamide Derivatives as Dual Inhibitors of COX-2 and Topo I Deter Gastrointestinal Cancers via Targeting Inflammation and Tumor Progression” (J Med Chem, 2022).
The source made the active and inactive calls. The rule behind the calls is not given here.

Key:
HGC-27 [1] = assay: Effect on cell morphology in human HGC-27 cells assessed as appearance of smaller cells at 10 uM incubated for 48 hrs by giemsa staining based microscopic analysis; format: functional
RKO [2] = assay: Effect on cell morphology in human RKO cells assessed as appearance of round cells at 10 uM incubated for 48 hrs by giemsa staining based microscopic analysis; format: functional
RKO [3] = assay: Antiproliferative activity against human RKO cells assessed as clone formation at 0.04 to 3.3 uM incubated for 4 days by crystal violet staining based analysis; format: functional, cell-based; conditions: dose 0.04-3.3 µM, time 4.0 day
HGC-27 [4] = assay: Antiproliferative activity against human HGC-27 cells assessed as reduction in cell proliferation incubated for 48 hrs by MTT assay; format: functional, cell-based; conditions: HGC-27, 48 h
RKO [5] = assay: Induction of apoptosis in human RKO cells at 1.1 to 10 uM for 24 hrs by Annexin V-FITC/PI staining based flow cytometry; format: functional, cell-based; conditions: dose 1.1-10 µM
HGC-27 [6] = assay: Anti-migration activity against human HGC-27 cells assessed as decrease in cell migration rate at 0.37 uM for 48 hrs by crystalline violet staining based assay; format: functional
HGC-27 [7] = assay: Induction of apoptosis in human HGC-27 cells at 1.1 to 10 uM for 24 hrs by Annexin V-FITC/PI staining based flow cytometry; format: functional, cell-based; conditions: dose 1.1-10 µM
CT26.WT [8] = assay: Antiproliferative activity against mouse CT26.WT cells assessed as cell viability at 1.11 uM for 48 hrs by MTT assay; format: functional; conditions: read-out: Activity
RKO [9] = assay: Anti-migration activity against human RKO cells assessed as inhibition of cell migration at 0.37 uM and measured after 24 hrs by wound healing assay; format: functional, cell-based
HGC-27 [10] = assay: Effect on cell morphology in human HGC-27 cells assessed as contracted nucleus at 10 uM incubated for 48 hrs by giemsa staining based microscopic analysis; format: functional
RKO [11] = assay: Effect on cell morphology in human RKO cells assessed as appearance of smaller cells at 10 uM incubated for 48 hrs by giemsa staining based microscopic analysis; format: functional
HGC-27 [12] = assay: Induction of mitochondrial membrane loss in human HGC-27 at 1.1 to 10 uM and measured after 36 hrs by TMRE dye based flow cytometry; format: functional, cell-based; conditions: dose 1.1-10 µM, DDE = dose-dependent effect
RKO [13] = assay: Antiproliferative activity against human RKO cells assessed as reduction in cell proliferation incubated for 48 hrs by MTT assay; format: functional, cell-based
RAW264.7 [14] = assay: Antiinflammatory activity in mouse RAW264.7 cells assessed as reduction in LPS-induced COX-2 expression at 6.6 uM incubated for 1 hrs followed by LPS stimulation and measured after 24 hrs by western blot analysis; format: functional, cell-based; conditions: time 25.0 hrs
CT26.WT [15] = assay: Antiproliferative activity against mouse CT26.WT cells assessed as reduction in cell proliferation incubated for 48 hrs by MTT assay; format: functional, cell-based
HGC-27 [16] = assay: Effect on cell morphology in human HGC-27 cells assessed as lose of adherence at 10 uM incubated for 48 hrs by giemsa staining based microscopic analysis; format: functional
HGC-27 [17] = assay: Effect on cell morphology in human HGC-27 cells assessed as condensed morphology at 10 uM incubated for 48 hrs by giemsa staining based microscopic analysis; format: functional
HGC-27 [18] = assay: Induction of cell cycle arrest in human HGC-27 cells assessed as accumulation at G2/M phase at 3.3 to 10 uM for 24 hrs by propidium iodide staining based flow cytometry; format: functional; conditions: dose 3.3-10 µM
SGC-7901 = assay: Antiproliferative activity against human SGC-7901 cells assessed as reduction in cell proliferation incubated for 48 hrs by MTT assay; format: functional, cell-based; conditions: SGC-7901, 48 h
HT-29 = assay: Antiproliferative activity against human HT-29 cells assessed as reduction in cell proliferation incubated for 48 hrs by MTT assay; format: functional, cell-based; conditions: HT-29, 48 h
RKO [19] = assay: Anti-migration activity against human RKO cells assessed as decrease in cell migration rate at 0.37 uM for 48 hrs by crystalline violet staining based assay; format: functional
RKO [20] = assay: Antiproliferative activity against human RKO cells assessed as cell viability at <= 0.41 uM for 48 hrs by MTT assay; format: functional; conditions: up to 0.41 µM
HGC-27 [21] = assay: Antiproliferative activity against human HGC-27 cells assessed as cell viability at <= 0.41 uM for 48 hrs by MTT assay; format: functional; conditions: up to 0.41 µM
HGC-27 [22] = assay: Antiproliferative activity against human HGC-27 cells assessed as clone formation at 0.37 to 3.3 uM incubated for 4 days by crystal violet staining based analysis; format: functional, cell-based; conditions: dose 0.37-3.3 µM, time 4.0 day
RAW264.7 [23] = assay: Inhibition of LPS induced NO production in mouse RAW264.7 cells at 6.6 uM incubated for 1 hrs followed by LPS stimulation and measured after 24 hrs by Griess reagent based assay; format: functional, cell-based; conditions: time 25.0 hrs
DNA topoisomerase 1 = target: T1, DNA topoisomerase 1 (Homo sapiens, UniProt P11387); assay: Inhibition of human topoisomerase I assessed as DNA relaxation using DNA pBR322 as substrate incubated for 30 mins by ethidium bromide staining based agarose gel electrophoresis
T1 sequence (P11387 whole entry): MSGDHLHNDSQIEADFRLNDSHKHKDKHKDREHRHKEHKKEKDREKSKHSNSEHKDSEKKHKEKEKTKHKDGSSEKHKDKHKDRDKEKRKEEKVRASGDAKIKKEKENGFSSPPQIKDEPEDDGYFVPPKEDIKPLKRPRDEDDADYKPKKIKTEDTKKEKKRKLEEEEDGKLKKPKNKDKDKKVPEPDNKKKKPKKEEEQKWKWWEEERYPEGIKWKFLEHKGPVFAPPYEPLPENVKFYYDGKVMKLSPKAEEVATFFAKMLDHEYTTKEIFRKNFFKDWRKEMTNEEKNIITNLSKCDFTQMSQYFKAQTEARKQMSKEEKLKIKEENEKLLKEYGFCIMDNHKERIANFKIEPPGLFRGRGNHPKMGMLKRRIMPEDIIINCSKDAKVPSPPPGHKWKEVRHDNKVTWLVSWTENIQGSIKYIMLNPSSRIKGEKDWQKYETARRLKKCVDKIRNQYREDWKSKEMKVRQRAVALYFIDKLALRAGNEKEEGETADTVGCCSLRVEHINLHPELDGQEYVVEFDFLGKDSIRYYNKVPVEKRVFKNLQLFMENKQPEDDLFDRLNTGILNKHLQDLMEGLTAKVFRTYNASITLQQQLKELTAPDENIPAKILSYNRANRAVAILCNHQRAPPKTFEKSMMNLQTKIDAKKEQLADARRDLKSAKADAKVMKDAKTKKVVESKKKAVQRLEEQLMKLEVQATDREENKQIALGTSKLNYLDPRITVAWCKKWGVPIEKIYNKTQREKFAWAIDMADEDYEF

[24] = target: T2, DNA topoisomerase 1 (Homo sapiens) (UniProt P11387); assay: Inhibition of human topoisomerase I assessed as DNA unwinding using DNA pBR322 as substrate at 2 uM incubated for 30 mins by ethidium bromide staining based agarose gel electrophoresis
T2 sequence (whole entry): T1 sequence (P11387 whole entry)

RKO [25] = assay: Effect on cell morphology in human RKO cells assessed as condensed morphology at 10 uM incubated for 48 hrs by giemsa staining based microscopic analysis; format: functional
RKO [26] = assay: Induction of mitochondrial membrane loss in human RKO at 1.1 to 10 uM and measured after 36 hrs by TMRE dye based flow cytometry; format: functional, cell-based; conditions: dose 1.1-10 µM, DDE = dose-dependent effect
HGC-27 [27] = assay: Effect on cell morphology in human HGC-27 cells assessed as appearance of round cells at 10 uM incubated for 48 hrs by giemsa staining based microscopic analysis; format: functional
RAW264.7 [28] = assay: Cytotoxicity against mouse RAW264.7 cells assessed as reduction in cell viability at <=11.11 for 24 hrs by MTT assay; format: toxicity, cell-based; conditions: raw264.7, 24 h
RKO [29] = assay: Effect on cell morphology in human RKO cells assessed as lose of adherence at 10 uM incubated for 48 hrs by giemsa staining based microscopic analysis; format: functional
RAW264.7 [30] = assay: Antiinflammatory activity against LPS-stimulated mouse RAW264.7 cells assessed decrease in IL-1beta release at 6.6 uM incubated for 1 hrs followed by LPS stimulation and measured after 24 hrs by ELISA relative to control; format: functional, cell-based; conditions: time 25.0 hrs
RKO [31] = assay: Effect on cell morphology in human RKO cells assessed as contracted nucleus at 10 uM incubated for 48 hrs by giemsa staining based microscopic analysis; format: functional
RKO [32] = assay: Induction of cell cycle arrest in human RKO cells assessed as accumulation at G2/M phase at 3.3 to 10 uM for 24 hrs by propidium iodide staining based flow cytometry; format: functional; conditions: dose 3.3-10 µM

For `Cc1c(Cl)cccc1Nc1ccc(F)cc1C(=O)NCc1ccc(O)c(F)c1`, the Activity (HGC-27 [1]) was “Active”, the Activity (RKO [2]) was “Active” and the Activity (RKO [3]) was “Active”. The IC50 (HGC-27 [4]) was 7.23 µM, the Activity (RKO [5]) was “Active” and the Activity (HGC-27 [6]) was “Active”. The Activity (HGC-27 [7]) was “Active”, the viability at 1.11 µM (CT26.WT [8]) was over 80% and the Activity (RKO [9]) was “Active”. The Activity (HGC-27 [10]) was “Active”, the Activity (RKO [11]) was “Active” and the Activity (HGC-27 [12]) was “Dde”. For the same molecule, the IC50 (RKO [13]) was 6.74 µM, the Activity (RAW264.7 [14]) was “Active” and the IC50 (CT26.WT [15]) was 8.88 µM. For the same molecule, the Activity (HGC-27 [16]) was “Active”, the Activity (HGC-27 [17]) was “Active” and the Activity (HGC-27 [18]) was “Active”. For the same molecule, the IC50 (SGC-7901) was 14.3 µM, the IC50 (HT-29) was 15.8 µM and the Activity (RKO [19]) was “Active”. For the same molecule, the Activity (RKO [20]) was over 80%, the Activity (HGC-27 [21]) was over 80% and the Activity (HGC-27 [22]) was “Active”. The inhibition (RAW264.7 [23]) was “Active”, the IC50 (DNA topoisomerase 1) was 4.79 µM and the inhibition [24] was 41.1%. For the same molecule, the Activity (RKO [25]) was “Active”, the Activity (RKO [26]) was “Dde” and the Activity (HGC-27 [27]) was “Active”. For the same molecule, the Activity (RAW264.7 [28]) was over 80%, the Activity (RKO [29]) was “Active” and the Activity (RAW264.7 [30]) was “Active”. For the same molecule, the Activity (RKO [31]) was “Active” and the Activity (RKO [32]) was “Active”.
